Test results: patent US11661409B1, “Acid addition salts, compositions, and methods of treating” (Pioneura Corporation, priority 2022, dated 2023)
“Also recorded” adds a separate entry of the source. Like-named read-outs stand apart in the source and are kept apart here.

Tests used:
[1] = mice; cited from earlier work
[2] = Pharmacokinetics of aqueous suspensions in mice; conditions: for Cmax: equimolar dose 10 mg/kg of free base, plasma Compound 1
Method: (§1) Blood was sampled with microbleeds frequently to produce the pharmacokinetics curves (AUCs).
(§2) The dosing suspension was analyzed before administration to the animals to ensure that the actual concentration was known.

[3] = Solubility and plasma levels of Compound 1 (general statements); type: physicochemical
Description: There is a significant, unmet need for means to administer Compound 1 to treat diseases or disorders, such as diseases or disorders associated with neuroinflammation. The present disclosure fulfills these and other needs, as evident in reference to the following disclosure.
To improve solubility, attempts to prepare acid addition salts from suitably acidic carboxylic acids (e.g., fumaric acid, maleic acid, citric acid, tartaric acid), standard mineral acids (e.g., hydrobromic acid, sulfuric acid, phosphoric acid), and sulfonic acids (e.g., toluenesulfonic acid, methanesulfonic acid, ethanesulfonic acid, benzenesulfonic acid), were conducted.

[4] = Solubility in methanol, ethanol, 95% ethanol; type: physicochemical
Description: Dual solvent systems were used, comprising methanol and ether, by dissolving the salt in a small volume of methanol and then adjusting the solubility by adding ether to the point of slight cloudiness. These samples then remained in the reaction vessel as needed to precipitate.

[5] = mouse, in vivo, 10 mg/kg
Method: as §1, §2

[6] = Dissolution behaviour in water; type: physicochemical
Method: Pharmaceutically acceptable salts were prepared using tartaric acid, fumaric acid, and phosphoric acid.

[7] = mice, aqueous suspension, 10 mg/kg of free base, 10 mg/kg
[8] = mice, aqueous suspension, 10 mg/kg of free base

CN1CCN(Cc2ccc(-c3cnc4[nH]cc(-c5ccc6[nH]ccc6c5)c4c3)cc2)CC1 [Compound 1, 3-(1H-indol-5-yl)-5-[4-[(4-methyl-1-piperazinyl)methyl]phenyl]-1H-pyrrolo[2,3-b]pyridine]
pharmacokinetic properties and CNS penetration [1]: excellent pharmacokinetic properties and central nervous system (CNS) penetration | Mean plasma concentration at 0.33 hr ([2]; mice, aqueous suspension, 10 mg/kg of free base, 0.33 hr, 10 mg/kg): LLQ | Mean plasma concentration at 1.0 hr [2, 7]: 1.91 ng/mL | Mean plasma concentration at 1.5 hr [2, 7]: 10.0 ng/mL | concentration at 0.67 h ([2]; mouse, plasma, oral, 10 mg/kg, Mean plasma concentration at 0.67 hr, mice, aqueous suspension, 10 mg/kg of free base, 0.67 hr): 1.46 ng/mL | concentration at 2 h ([2]; mouse, plasma, oral, 10 mg/kg, Mean plasma concentration at 2.0 hr, mice, aqueous suspension, 10 mg/kg of free base, 2.0 hr): 20.4 ng/mL | concentration at 4 h ([2]; mouse, plasma, oral, 10 mg/kg, Mean plasma concentration at 4.0 hr, mice, aqueous suspension, 10 mg/kg of free base, 4.0 hr): 46.9 ng/mL | Tmax ([2]; mouse, plasma, po, 10 mg/kg): 6 h | AUC(0-t) ([2]; mouse, plasma, po, 10 mg/kg, AUClast, mice, aqueous suspension, 10 mg/kg of free base, 6-hour study): 181 ng·h/mL | Cmax ([2]; mouse, plasma, po, 10 mg/kg, Cmax, mice, aqueous suspension): 56.3 ng/mL | plasma serum levels upon administration without excipients such as DMSO [3]: only low plasma serum levels | solubility in water / aqueous and organic carriers [3]: insoluble in water; also recorded: limited solubility in typical aqueous and organic carriers | solubility in methanol, ethanol or 95% ethanol ([4]; listed as free base): not very soluble in methanol, ethanol, or 95% ethanol at room temperature

CN1CCN(Cc2ccc(-c3cnc4[nH]cc(-c5ccc6[nH]ccc6c5)c4c3)cc2)CC1 [Fumarate, 3-(1H-indol-5-yl)-5-[4-[(4-methyl-1-piperazinyl)methyl]phenyl]-1H-pyrrolo[2,3-b]pyridine]
solubility in methanol, ethanol or 95% ethanol [4]: dissolved readily in hot methanol

CN1CCN(Cc2ccc(-c3cnc4[nH]cc(-c5ccc6[nH]ccc6c5)c4c3)cc2)CC1 [Phosphate, 3-(1H-indol-5-yl)-5-[4-[(4-methyl-1-piperazinyl)methyl]phenyl]-1H-pyrrolo[2,3-b]pyridine]
Tmax [2, 8]: 6.00 h | exposure compared with free base [2, 8]: superior to the free base in key pharmacokinetic measures | AUClast ([2]; mice, aqueous suspension, 10 mg/kg of free base, 6-hour study, 10 mg/kg): 230 ng·h/mL | Mean plasma concentration at 0.67 hr ([2]; mice, aqueous suspension, 10 mg/kg of free base, 0.67 hr, 10 mg/kg): 2.71 ng/mL | Mean plasma concentration at 1.0 hr [2, 7]: 7.32 ng/mL | Mean plasma concentration at 1.5 hr [2, 7]: 21.9 ng/mL | Mean plasma concentration at 2.0 hr ([2]; mice, aqueous suspension, 10 mg/kg of free base, 2.0 hr, 10 mg/kg): 31.7 ng/mL | Mean plasma concentration at 4.0 hr ([2]; mice, aqueous suspension, 10 mg/kg of free base, 4.0 hr, 10 mg/kg): 48.3 ng/mL | Cmax ([2]; mice, aqueous suspension, 10 mg/kg): 78 ng/mL | concentration at 0.33 h ([2]; mouse, plasma, oral, 10 mg/kg, Mean plasma concentration at 0.33 hr, mice, aqueous suspension, 10 mg/kg of free base, 0.33 hr): 0.679 ng/mL | solubility in methanol, ethanol or 95% ethanol [4]: least soluble in methanol of the three salts tested | solubility in methanol, ethanol or 95% ethanol ([4]; listed as Phosphoric Acid): low in methanol

tartrate salt of 3-(1H-indol-5-yl)-5-[4-[(4-methyl-1-piperazinyl)methyl]phenyl]-1H-pyrrolo[2,3-b]pyridine
AUClast [5]: 259 ng·h/mL | Cmax [5]: 66.9 ng/mL | Mean plasma concentration at 0.33 hr [5]: 4.24 ng/mL | Mean plasma concentration at 0.67 hr [5]: 8.2 ng/mL | Mean plasma concentration at 1.0 hr [5]: 15.2 ng/mL | Mean plasma concentration at 1.5 hr [5]: 31.4 ng/mL | Mean plasma concentration at 2.0 hr [5]: 38.8 ng/mL | Mean plasma concentration at 4.0 hr [5]: 63.4 ng/mL | Tmax [5]: 4.67 h | kinetic dissolution in water [6]: fastest to kinetically dissolve
